“And” between values parts separate entries of the source, which are not always exact repeats. Equal entries are not always repeated.
Biological target: T1, WWP1 (His-tagged WWP1-L34H) (Homo sapiens, UniProt Q9H0M0)
T1 construct: WWP1- 2,3-linker-WW3-WW4-HECT (WWP1-L34H); made in house; host or cells: E. coli BL21-CodonPlus RP (plasmid pET32a-WWP1-L34H, gift of Dr Wenyu Wen)
Experiment: in vitro autoubiquitination assay (single shot and dose dependency), WWP1
Format: biochemical
Procedure: A single shot in vitro autoubiquitination assay was performed for I3C, DIM and each of the derivatives against WWP1 and WWP2 using a compound concentration of 1 mM (1% DMSO) (SI Figure S3). […] These active compounds were then subjected to a detailed dose dependency analysis leading to IC50 values. This strategy has previously been employed to screen other WWP1/WWP2 small molecule inhibitors as well as used to assess I3C inhibition toward NEDD4-1.[29],[32] In this way, compounds displaying a relative activity (RA) of less than 50% in the single shot assay were further screened for dose-dependency using a logarithmic concentration range from 10 nM to 1 mM (1% DMSO) (SI Figure S4). […] These were confirmed by counter assays to remove compounds possibly interacting with other enzymes in the assay or interfering with the assay directly (SI Table S1).
Cell lysate containing His-tagged WWP1-L34H or GST-tagged WWP2-FL proteins were incubated on either 96-well Clear Pierce glutathione or nickel-coated plates for 1 h. Reaction mixtures of either 3 ng/well GST-Uba1 and 15 ng/well UbcH7 or 10 ng/well His-Uba1 and 150 ng/well His-UbcH7 were incubated together in 25 mM Tris pH 8.0, 100 mM NaCl, 4 mM MgCl2 containing 60 ng/well FLAG-ubiquitin and 1.25 mM ATP for 40 min. A prior 1% BSA plate blocking step is required for nickel-coated plates. After plate washing, 2 μL of the compound was added at the desired concentration (1% DMSO) followed by 18 μL of the reaction mixture. This was then incubated for 2 h with 0 and 100% controls before 100 μL of anti-FLAG M2-Peroxidase HRP (1:10,000 PBST) was added to each well and incubated for 1 h. Finally, 100 μL of 1 × TMB substrate solution (Invitrogen) was added to each well and incubated for up to 10 min until sufficient blue color change was observed. To stop the reaction, 100 μL of 1 M HCl was added. For the counter assay, 3 ng/well GST-Uba1 and 200 ng/well UbcH7 were incubated with the other reaction mixture components for 1 h before incubating onto plates for a further 1 h. All other steps were followed. The plates were washed three times with PBST (and 15 mM Imidazole) between each step. Quantification was measured by absorbance read at 450 nm. All assay optimizations were as previously reported.[32] IC50 nonlinear regression curves were calculated in GraphPad v10.2 (Prism). […]
Auto-ubiquitination Assay
Cell lysate containing His-tagged WWP1-L34H or GST-tagged WWP2-FL proteins were incubated on either 96-well Clear Pierce glutathione 2 or nickel-coated plates for 1 hour. Reaction mixtures of either 3 ng/well GST-Uba1 and 15 ng/well UbcH7 or 10 ng/well His-Uba1 and 150 ng/well His-UbcH7 were incubated together in 25 mM Tris pH 8.0, 100 mM NaCl, 4 mM MgCl2 containing 60 ng/well FLAG-ubiquitin and 1.25 mM ATP for 40 minutes. A prior 1 % BSA plate blocking step is required for nickel-coated plates. After plate washing, 2 μL of the compound was added at the desired concentration (1 % DMSO) followed by 18 μL of the reaction mixture. This was then incubated for 2 hours with 0% and 100% controls before 100 μL of anti-FLAG M2-Peroxidase HRP (1: 10,000 PBST) was added to each well and incubated for 1 hour.
Finally, 100 μL of 1 × TMB substrate solution (Invitrogen) was added to each well and […]
incubated for up to 10 minutes until sufficient blue colour change was observed. To stop the reaction, 100 μL of 1 M HCl was added. For the counter assay, 3 ng/well GST-Uba1 and 200 ng/well UbcH7 were incubated with the other reaction mixture components for 1 hour before incubating onto plates for a further 1 hour. All other steps were followed.
The plates were washed three times with PBST (and 15 mM Imidazole) between each step. Quantification was measured by absorbance read at 450 nm. All assay optimisations have been previously reported by Watt and colleagues3.
Relative activity (RA) was determined by comparing the autoubiquitination of the WWP ligases in the presence of each compound, i.e TMB absorbance (450 nm), to the […]

T1 sequence (Q9H0M0 415-922, stated change not applied): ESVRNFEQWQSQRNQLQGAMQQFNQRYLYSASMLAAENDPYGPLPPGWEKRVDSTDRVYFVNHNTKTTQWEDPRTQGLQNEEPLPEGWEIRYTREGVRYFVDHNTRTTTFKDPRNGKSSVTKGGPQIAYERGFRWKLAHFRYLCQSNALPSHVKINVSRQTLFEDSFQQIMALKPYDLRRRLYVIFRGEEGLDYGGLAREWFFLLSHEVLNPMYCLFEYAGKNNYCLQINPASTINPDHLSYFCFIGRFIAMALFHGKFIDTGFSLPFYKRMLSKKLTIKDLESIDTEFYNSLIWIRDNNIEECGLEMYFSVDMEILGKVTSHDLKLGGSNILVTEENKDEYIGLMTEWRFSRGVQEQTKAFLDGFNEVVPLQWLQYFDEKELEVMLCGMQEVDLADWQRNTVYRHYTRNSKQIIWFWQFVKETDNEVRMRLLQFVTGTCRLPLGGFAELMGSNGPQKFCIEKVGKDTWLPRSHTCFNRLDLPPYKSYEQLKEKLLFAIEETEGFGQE

inhibition of WWP1 (in words) (autoubiquitination assay): displayed inhibition
IC50 (nonlinear regression of RA against log concentration, 1 mM to 10 nM, 1% DMSO): ~1010 µM and 1010 µM
WWP1 RA (%) relative activity (single shot, compound at 1 mM (1% DMSO), standardized to 0 and 100% controls): 48.2 ± 8.6% and 48.2%
SMILES: OCc1c[nH]c2ccccc12 [Compound I3C, Indole-3-carbinol, reference compound]

— article PMC11840788, “3,3′-Diindolylmethane (DIM): A Molecular Scaffold for Inhibition of WWP1 and WWP2, Members of the NEDD4 Family HECT E3 Ligases” (ACS Omega, 2025)
